Laboratory results: US12252524B2, “GIP/GLP1 co-agonist compounds” (Eli Lilly and Company, priority 2018, dated 2025)
Numbered stars: 1 amine (or outer) side, 2 acyl side, 3 side chain; on linkers, the order of the positions; unused ones are H or OH. Square brackets hold non-standard residues; d marks the D form. Side chains are listed from the residue outwards. Peptide text beside a SMILES is read from it. * marks the point of attachment. C20 diacid = O=C(O)CCCCCCCCCCCCCCCCCCC(=O)*; αMePhe(2-F) = C[C@](N)(Cc1ccccc1F)C(=O)O; γGlu = O=C(O)[C@H](CCC(=O)[*:2])N[*:1]; 4Pal = N[C@@H](Cc1ccncc1)C(=O)O; αMeL = CC(C)C[C@](C)(N)C(=O)O; Dab = NCC[C@H](N)C(=O)O; AEEA = NCCOCCOCC(=O)O; Aib = CC(C)(N)C(=O)O

Tests used:
human Gcg receptor = target: T1, human Gcg receptor (Homo sapiens, UniProt P47871); test: [125I]-Glucagon binding (SPA), human Gcg receptor; details: read-out: hGLcgR Ki, nM (SEM, n)
T1 construct: expressed in transfected cells; crude membranes
T1 sequence (P47871 26-477): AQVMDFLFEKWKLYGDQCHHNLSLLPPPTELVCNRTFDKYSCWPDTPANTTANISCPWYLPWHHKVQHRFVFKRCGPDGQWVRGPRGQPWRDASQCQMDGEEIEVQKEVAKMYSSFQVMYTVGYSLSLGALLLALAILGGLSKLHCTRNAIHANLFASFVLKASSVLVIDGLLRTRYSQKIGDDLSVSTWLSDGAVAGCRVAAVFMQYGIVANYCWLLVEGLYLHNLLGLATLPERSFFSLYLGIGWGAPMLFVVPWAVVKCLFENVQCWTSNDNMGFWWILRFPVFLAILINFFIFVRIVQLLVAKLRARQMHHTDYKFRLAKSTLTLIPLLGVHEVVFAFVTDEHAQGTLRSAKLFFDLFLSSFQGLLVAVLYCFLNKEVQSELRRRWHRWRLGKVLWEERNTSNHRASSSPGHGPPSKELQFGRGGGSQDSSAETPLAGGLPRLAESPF
Outline: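 Crude membranes from cells expressing the receptor, prepared by hypotonic lysis in 50 mM Tris HCl pH 7.5 with protease inhibitors, homogenization and differential centrifugation, were used in a WGA-bead SPA. Binding buffer: 25 mM HEPES pH 7.4, 2.5 mM CaCl2, 1 mM MgCl2, bacitracin, Tween-20.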

[1] = target: human GLP-1 receptor (GLP-1R) (Homo sapiens, UniProt P43220); test: cAMP pharmacological functional assay in presence of casein, hGLP-1R; assay type: cell-based; details: HEK293 cells expressing hGLP-1R, 0.1% Casein, geometric mean; read-out: hGLP1R cAMP Rel EC50 nM (SEM, n)
Chain of human GLP-1 receptor (GLP-1R) (P43220 24-463): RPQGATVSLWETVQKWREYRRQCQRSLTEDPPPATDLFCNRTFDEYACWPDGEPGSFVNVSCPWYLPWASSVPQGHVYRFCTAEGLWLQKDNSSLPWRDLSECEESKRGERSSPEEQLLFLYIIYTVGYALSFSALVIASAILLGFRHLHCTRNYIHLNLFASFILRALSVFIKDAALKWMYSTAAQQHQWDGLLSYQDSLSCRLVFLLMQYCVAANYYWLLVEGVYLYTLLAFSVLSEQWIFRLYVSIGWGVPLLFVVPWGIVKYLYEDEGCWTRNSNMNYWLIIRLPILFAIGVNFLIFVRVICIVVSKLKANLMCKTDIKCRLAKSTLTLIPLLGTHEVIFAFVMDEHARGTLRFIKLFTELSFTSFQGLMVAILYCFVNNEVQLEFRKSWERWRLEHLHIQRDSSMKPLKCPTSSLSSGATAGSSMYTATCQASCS

human GLP-1R = human GLP-1R (Homo sapiens, UniProt P43220); test: [125I]-GLP-1 binding (SPA), human GLP-1 receptor; set-up: expressed in transfected cells; crude membranes; details: read-out: hGLP1R Ki, (nM) (SEM, n)
Chain of human GLP-1R (P43220 24-463): as above
Outline: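 Membranes: hypotonic lysis (50 mM Tris HCl, pH 7.5, protease inhibitors), Potter-Elvehjem homogenization, high-speed pellet (35000×g 1 h or 25000×g 30 min, 4° C.). Buffer: 25 mM HEPES pH 7.4, 2.5 mM CaCl2, 1 mM MgCl2. Four-parameter IC50 fit; Ki as geometric mean ± SEM.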

[2] = target: T2, gastric inhibitory peptide receptor (GIPR) (Homo sapiens, UniProt P48546); test: cAMP pharmacological functional assay in presence of casein, hGIPR; assay type: cell-based; details: HEK293 cells expressing hGIPR, 0.1% Casein, geometric mean; read-out: hGIPR cAMP Rel EC50 nM (SEM, n)
T2 sequence (P48546 22-466): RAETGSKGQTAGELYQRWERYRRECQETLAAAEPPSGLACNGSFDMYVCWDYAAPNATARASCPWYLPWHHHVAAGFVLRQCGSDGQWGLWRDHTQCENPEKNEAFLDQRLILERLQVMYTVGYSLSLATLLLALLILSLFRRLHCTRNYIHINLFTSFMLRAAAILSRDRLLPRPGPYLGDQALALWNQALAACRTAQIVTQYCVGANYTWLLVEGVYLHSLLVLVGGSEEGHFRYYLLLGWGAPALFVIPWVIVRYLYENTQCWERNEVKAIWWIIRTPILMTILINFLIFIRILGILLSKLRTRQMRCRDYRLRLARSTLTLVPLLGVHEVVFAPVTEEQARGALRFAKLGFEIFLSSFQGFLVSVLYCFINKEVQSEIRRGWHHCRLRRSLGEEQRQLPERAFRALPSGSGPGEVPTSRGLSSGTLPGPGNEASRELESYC

human GIP receptor = target: T3, human GIP receptor (Homo sapiens, UniProt P48546); test: [125I]-GIP binding (SPA), human GIP receptor; details: read-out: hGIPR Ki, nM (SEM, n)
T3 construct: expressed in transfected cells; crude membranes
T3 sequence (P48546 22-466): T2 sequence (P48546 22-466)

Compound	Ki (human Gcg receptor)	EC50 [1]	Ki (human GLP-1R)	EC50 [2]	Ki (human GIP receptor)
CC[C@H](C)[C@H](NC(=O)[C@H](CC(C)C)NC(=O)[C@H](Cc1ccc(O)cc1)NC(=O)[C@H](CCC(=O)O)NC(=O)[C@@H](NC(=O)[C@H](Cc1ccccc1)NC(=O)[C@H](CCC(=O)O)NC(=O)C(C)(C)NC(=O)[C@H](CCC(N)=O)NC(=O)[C@H](C)NC(=O)[C@H](CCCCNC(=O)COCCOCCNC(=O)COCCOCCNC(=O)CC[C@H](NC(=O)CCCCCCCCCCCCCCCCCCC(=O)O)C(=O)O)NC(=O)[C@H](CCC(=O)O)NC(=O)[C@H](CC(=O)O)NC(=O)[C@H](CC(C)C)NC(=O)[C@](C)(CC(C)C)NC(=O)[C@@H](NC(=O)[C@H](CO)NC(=O)[C@H](Cc1ccncc1)NC(=O)[C@H](CC(=O)O)NC(=O)[C@H](CO)NC(=O)[C@@H](NC(=O)[C@](C)(Cc1ccccc1F)NC(=O)[C@@H](NC(=O)CNC(=O)[C@H](CCC(=O)O)NC(=O)C(C)(C)NC(=O)[C@@H](N)Cc1ccc(O)cc1)[C@@H](C)O)[C@@H](C)O)[C@@H](C)CC)[C@@H](C)CC)C(=O)N[C@@H](CCC(=O)O)C(=O)NCC(=O)NCC(=O)N1CCC[C@H]1C(=O)N[C@@H](CO)C(=O)N[C@@H](CO)C(=O)NCC(=O)N[C@@H](C)C(=O)N1CCC[C@H]1C(=O)N1CCC[C@H]1C(=O)N1CCC[C@H]1C(=O)N[C@@H](CO)C(N)=O [Example 158] (H-Y[Aib]EGT[αMePhe(2-F)]TSD[4Pal]SI[αMeL]LDEK([AEEA-AEEA-γGlu-C20 diacid])AQ[Aib]EFIEYLIEGGPSSGAPPPS-NH2; N-terminus assumed)	285 nM	0.0374 nM	11.8 nM	0.0454 nM	0.114 nM
CC[C@H](C)[C@H](NC(=O)[C@H](CC(C)C)NC(=O)[C@H](Cc1ccc(O)cc1)NC(=O)[C@@H](CCC(=O)O)NC(=O)[C@@H](NC(=O)[C@H](Cc1ccccc1)NC(=O)[C@H](CCC(=O)O)NC(=O)C(C)(C)NC(=O)[C@H](CCC(N)=O)NC(=O)[C@H](C)NC(=O)[C@H](CCCCNC(=O)COCCOCCNC(=O)COCCOCCNC(=O)CC[C@H](NC(=O)CCCCCCCCCCCCCCCCCCC(=O)O)C(=O)O)NC(=O)[C@H](CCN)NC(=O)[C@H](CC(=O)O)NC(=O)[C@H](CC(C)C)NC(=O)[C@](C)(CC(C)C)NC(=O)[C@@H](NC(=O)[C@H](CO)NC(=O)[C@H](Cc1ccc(O)cc1)NC(=O)[C@H](CC(=O)O)NC(=O)[C@H](CO)NC(=O)[C@@H](NC(=O)[C@](C)(Cc1ccccc1F)NC(=O)[C@@H](NC(=O)CNC(=O)[C@H](CCC(=O)O)NC(=O)C(C)(C)NC(=O)[C@@H](N)Cc1ccc(O)cc1)[C@@H](C)O)[C@@H](C)O)[C@@H](C)CC)[C@@H](C)CC)C(=O)N[C@@H](CCC(=O)O)C(=O)NCC(=O)NCC(=O)N1CCC[C@H]1C(=O)N[C@@H](CO)C(=O)N[C@@H](CO)C(=O)NCC(=O)N[C@@H](C)C(=O)N1CCC[C@H]1C(=O)N1CCC[C@H]1C(=O)N1CCC[C@H]1C(=O)N[C@@H](CO)C(N)=O [Example 217] (H-Y[Aib]EGT[αMePhe(2-F)]TSDYSI[αMeL]LD[Dab]K([AEEA-AEEA-γGlu-C20 diacid])AQ[Aib]EFI[dE]YLIEGGPSSGAPPPS-NH2)	516 nM	0.0383 nM	2.02 nM	0.0563 nM	0.0376 nM
CC[C@H](C)[C@H](NC(=O)[C@H](CC(C)C)NC(=O)[C@H](Cc1ccc(O)cc1)NC(=O)[C@@H](CCC(=O)O)NC(=O)[C@@H](NC(=O)[C@H](Cc1ccccc1)NC(=O)[C@H](CCC(=O)O)NC(=O)C(C)(C)NC(=O)[C@H](CCC(N)=O)NC(=O)[C@H](C)NC(=O)[C@H](CCCCNC(=O)COCCOCCNC(=O)COCCOCCNC(=O)CC[C@H](NC(=O)CCCCCCCCCCCCCCCCCCC(=O)O)C(=O)O)NC(=O)[C@H](CCC(=O)O)NC(=O)[C@H](CC(=O)O)NC(=O)[C@H](CC(C)C)NC(=O)[C@](C)(CC(C)C)NC(=O)[C@@H](NC(=O)[C@H](CO)NC(=O)[C@H](C)NC(=O)[C@H](CC(=O)O)NC(=O)[C@H](CO)NC(=O)[C@@H](NC(=O)[C@](C)(Cc1ccccc1F)NC(=O)[C@@H](NC(=O)CNC(=O)[C@H](CCC(=O)O)NC(=O)C(C)(C)NC(=O)[C@@H](N)Cc1ccc(O)cc1)[C@@H](C)O)[C@@H](C)O)[C@@H](C)CC)[C@@H](C)CC)C(=O)N[C@@H](CCC(=O)O)C(=O)NCC(=O)NCC(=O)N1CCC[C@H]1C(=O)N[C@@H](CO)C(=O)N[C@@H](CO)C(=O)NCC(=O)N[C@@H](C)C(=O)N1CCC[C@H]1C(=O)N1CCC[C@H]1C(=O)N1CCC[C@H]1C(=O)N[C@@H](CO)C(N)=O [Example 192] (H-Y[Aib]EGT[αMePhe(2-F)]TSDASI[αMeL]LDEK([AEEA-AEEA-γGlu-C20 diacid])AQ[Aib]EFI[dE]YLIEGGPSSGAPPPS-NH2; N-terminus assumed)	> 1110 nM	0.0289 nM	2.89 nM	0.0615 nM	0.118 nM
CC[C@H](C)[C@H](NC(=O)[C@H](CCCCN)NC(=O)[C@H](CC(=O)O)NC(=O)[C@H](CC(C)C)NC(=O)[C@H](CC(C)C)NC(=O)[C@@H](NC(=O)[C@H](CO)NC(=O)[C@H](Cc1ccc(O)cc1)NC(=O)[C@H](CC(=O)O)NC(=O)[C@H](CO)NC(=O)[C@@H](NC(=O)[C@H](Cc1ccccc1)NC(=O)[C@@H](NC(=O)CNC(=O)[C@H](CCC(=O)O)NC(=O)C(C)(C)NC(=O)[C@@H](N)Cc1ccc(O)cc1)[C@@H](C)O)[C@@H](C)O)[C@@H](C)CC)C(=O)N[C@@H](C)C(=O)N[C@@H](CCC(N)=O)C(=O)NC(C)(C)C(=O)N[C@@H](C)C(=O)N[C@@H](Cc1ccccc1)C(=O)N[C@H](C(=O)N[C@@H](CCC(=O)O)C(=O)N[C@@H](Cc1ccc(O)cc1)C(=O)N[C@@H](CC(C)C)C(=O)N[C@H](C(=O)N[C@@H](CCC(=O)O)C(=O)NCC(=O)NCC(=O)N1CCC[C@H]1C(=O)N[C@@H](CO)C(=O)N[C@@H](CO)C(=O)NCC(=O)N[C@@H](C)C(=O)N1CCC[C@H]1C(=O)N1CCC[C@H]1C(=O)N1CCC[C@H]1C(=O)N[C@@H](CO)C(=O)N[C@@H](CCCCNC(=O)COCCOCCNC(=O)COCCOCCNC(=O)CC[C@H](NC(=O)CCCCCCCCCCCCCCCCCCC(=O)O)C(=O)O)C(N)=O)[C@@H](C)CC)[C@@H](C)CC [Example 49] (H-Y[Aib]EGTFTSDYSILLDKIAQ[Aib]AFIEYLIEGGPSSGAPPPSK([AEEA-AEEA-γGlu-C20 diacid])-NH2; N-terminus assumed)	236 nM	0.597 nM	12.3 nM	0.0868 nM	0.087 nM
CC[C@H](C)[C@H](NC(=O)[C@H](CC(C)C)NC(=O)[C@H](Cc1ccc(O)cc1)NC(=O)[C@H](CCC(=O)O)NC(=O)[C@@H](NC(=O)[C@H](Cc1ccccc1)NC(=O)[C@H](C)NC(=O)C(C)(C)NC(=O)[C@H](CCC(N)=O)NC(=O)[C@H](C)NC(=O)[C@H](CCCCNC(=O)COCCOCCNC(=O)COCCOCCNC(=O)CC[C@H](NC(=O)CCCCCCCCCCCCCCCCCCC(=O)O)C(=O)O)NC(=O)[C@H](CCCCN)NC(=O)[C@H](CC(=O)O)NC(=O)[C@H](CC(C)C)NC(=O)[C@H](CC(C)C)NC(=O)[C@@H](NC(=O)[C@@H](CO)NC(=O)[C@H](Cc1ccc(O)cc1)NC(=O)[C@H](CC(=O)O)NC(=O)[C@H](CO)NC(=O)[C@@H](NC(=O)[C@H](Cc1ccccc1)NC(=O)[C@@H](NC(=O)CNC(=O)[C@H](CCC(=O)O)NC(=O)C(C)(C)NC(=O)[C@@H](N)Cc1ccc(O)cc1)[C@@H](C)O)[C@@H](C)O)[C@@H](C)CC)[C@@H](C)CC)C(=O)N[C@@H](CCC(=O)O)C(=O)NCC(=O)NCC(=O)N1CCC[C@H]1C(=O)N[C@@H](CO)C(=O)N[C@@H](CO)C(=O)NCC(=O)N[C@@H](C)C(=O)N1CCC[C@H]1C(=O)N1CCC[C@H]1C(=O)N1CCC[C@H]1C(=O)N[C@@H](CO)C(N)=O [Example 81]	344 nM	1.29 nM	2.88 nM	0.428 nM	0.198 nM
